Experimental data published in patent US11987588B2, “Modulators of the beta-3 adrenergic receptor useful for the treatment or prevention of heart failure and disorders related thereto” (Arena Pharmaceuticals, Inc., priority 2017, dated 2024).

Target: Beta-3 Adrenergic Receptor (Homo sapiens (Human), UniProt P13945)
Assay: Homogeneous Time-Resolved Fluorescence (HTRF) cAMP antagonist assay, IC50 determination
Type: cell-based
Conditions: CHO-K1 cells stably expressing recombinant receptor, isoproterenol at EC90
Method in brief: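 In this functional readout, recombinant CHO-K1 cells received compound, then isoproterenol at its EC90. After 1 h at room temperature, cAMP levels were determined by HTRF using an on-plate standard curve, and IC50 values were fitted.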

Sequence of Beta-3 Adrenergic Receptor (P13945 whole entry, species assumed): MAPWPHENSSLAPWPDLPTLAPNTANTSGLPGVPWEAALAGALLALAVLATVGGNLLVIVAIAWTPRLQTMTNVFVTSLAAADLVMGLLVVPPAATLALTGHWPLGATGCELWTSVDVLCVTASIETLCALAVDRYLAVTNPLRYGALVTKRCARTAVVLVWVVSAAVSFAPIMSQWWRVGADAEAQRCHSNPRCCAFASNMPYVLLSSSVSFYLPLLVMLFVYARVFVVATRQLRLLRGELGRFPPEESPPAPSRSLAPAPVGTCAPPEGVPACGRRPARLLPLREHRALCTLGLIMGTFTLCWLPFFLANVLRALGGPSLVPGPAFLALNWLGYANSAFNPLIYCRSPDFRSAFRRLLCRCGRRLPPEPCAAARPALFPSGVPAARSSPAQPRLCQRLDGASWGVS

IC50 [nM] | SMILES
609 | CNS(=O)(=O)c1cccc(OC[C@@H](O)CN[C@H]2COC3(CCN(c4nccc(C(F)(F)F)n4)CC3)C2)c1 [Compound 574, 3-((S)-2-hydroxy-3-((R)-8-(4-(trifluoromethyl)pyrimidin-2-yl)-1-oxa-8-azaspiro[4.5]decan-3-ylamino)propoxy)-N-methylbenzenesulfonamide]
167 | CNS(=O)(=O)c1cccc(OC[C@@H](O)CNC2COC3(CCN(S(=O)(=O)c4cccc(-c5ccc(CNC(=O)CC(=O)O)cc5)c4)CC3)C2)c1 (stereo partly drawn) [Compound 352, 3-((3′-(3-((S)-2-hydroxy-3-(3-(N-methylsulfamoyl)phenoxy)propylamino)-1-oxa-8-azaspiro[4.5]decan-8-ylsulfonyl)biphenyl-4-yl)methylamino)-3-oxopropanoic acid]
28.4 | CNS(=O)(=O)c1cccc(OC[C@@H](O)CNC2COC3(CCN(S(=O)(=O)c4cc(Cl)ccc4C)CC3)C2)c1 (stereo partly drawn) [Compound 240, 3-((2S)-3-(8-(5-chloro-2-methylphenylsulfonyl)-1-oxa-8-azaspiro[4.5]decan-3-ylamino)-2-hydroxypropoxy)-N-methylbenzenesulfonamide]
13.4 | CNS(=O)(=O)c1cccc(OC[C@@H](O)CN[C@@H]2COC3(CCN(S(=O)(=O)c4cccc(-c5ccc(CN)cc5)c4)CC3)C2)c1 [Compound 288, 3-((S)-3-((S)-8-(4′-(aminomethyl)biphenyl-3-ylsulfonyl)-1-oxa-8-azaspiro[4.5]decan-3-ylamino)-2-hydroxypropoxy)-N-methylbenzenesulfonamide]
29.3 | Cc1c(S(=O)(=O)N2CCC3(CC2)CC(NC[C@H](O)COc2cccc(S(=O)(=O)N(C)C)c2)CO3)cnn1-c1ccccc1 (stereo partly drawn) [Compound 252, 3-((2S)-2-hydroxy-3-(8-(5-methyl-1-phenyl-1H-pyrazol-4-ylsulfonyl)-1-oxa-8-azaspiro[4.5]decan-3-ylamino)propoxy)-N,N-dimethylbenzenesulfonamide]
38.1 | CNS(=O)(=O)c1cccc(OC[C@@H](O)CN[C@H]2COC3(CCN(S(=O)(=O)c4cnc5c(c4)COCC5)CC3)C2)c1 [Compound 488, 3-((S)-3-((R)-8-(7,8-dihydro-5H-pyrano[4,3-b]pyridin-3-ylsulfonyl)-1-oxa-8-azaspiro[4.5]decan-3-ylamino)-2-hydroxypropoxy)-N-methylbenzenesulfonamide]
131 | CNS(=O)(=O)c1cccc(OC[C@@H](O)CNC2COC3(CCN(S(=O)(=O)CCc4ccncc4)CC3)C2)c1 (stereo partly drawn) [Compound 378, 3-((2S)-2-hydroxy-3-(8-(2-(pyridin-4-yl)ethylsulfonyl)-1-oxa-8-azaspiro[4.5]decan-3-ylamino)propoxy)-N-methylbenzenesulfonamide]
16.4 | CNS(=O)(=O)c1cccc(OC[C@@H](O)CN[C@H]2COC3(CCN(S(=O)(=O)c4cnc5[nH]nc(C)c5c4)CC3)C2)c1 [Compound 497, 3-((S)-2-hydroxy-3-((R)-8-(3-methyl-1H-pyrazolo[3,4-b]pyridin-5-ylsulfonyl)-1-oxa-8-azaspiro[4.5]decan-3-ylamino)propoxy)-N-methylbenzenesulfonamide]
8.79 | CNS(=O)(=O)c1cccc(OC[C@@H](O)CNC2COC3(CCN(S(=O)(=O)c4ccc(OC)c(Cl)c4)CC3)C2)c1 (stereo partly drawn) [Compound 207, 3-((2S)-3-(8-(3-chloro-4-methoxyphenylsulfonyl)-1-oxa-8-azaspiro[4.5]decan-3-ylamino)-2-hydroxypropoxy)-N-methylbenzenesulfonamide]
217 | CNS(=O)(=O)c1cccc(OC[C@@H](O)CN[C@H]2COC3(CCN(S(=O)(=O)c4cnc5c(c4)CCO5)CC3)C2)c1 [Compound 504, 3-((S)-3-((R)-8-(2,3-dihydrofuro[2,3-b]pyridin-5-ylsulfonyl)-1-oxa-8-azaspiro[4.5]decan-3-ylamino)-2-hydroxypropoxy)-N-methylbenzenesulfonamide]
10.7 | CNS(=O)(=O)c1cccc(OC[C@@H](O)CN[C@H]2COC3(CCN(S(=O)(=O)c4cnn(-c5ccccc5)c4C)CC3)C2)c1 [Compound 281, 3-((S)-2-hydroxy-3-((R)-8-(5-methyl-1-phenyl-1H-pyrazol-4-ylsulfonyl)-1-oxa-8-azaspiro[4.5]decan-3-ylamino)propoxy)-N-methylbenzenesulfonamide]
762 | CNS(=O)(=O)c1cccc(OC[C@@H](O)CN[C@H]2COC3(CCN(c4cnccn4)CC3)C2)c1 [Compound 586, 3-((S)-2-hydroxy-3-((R)-8-(pyrazin-2-yl)-1-oxa-8-azaspiro[4.5]decan-3-ylamino)propoxy)-N-methylbenzenesulfonamide]
9.36 | CNS(=O)(=O)c1cccc(OC[C@@H](O)CNC2COC3(CCN(S(=O)(=O)c4cccc(-c5ccc(NS(C)(=O)=O)cc5)c4)CC3)C2)c1 (stereo partly drawn) [Compound 86, 3-((2S)-2-hydroxy-3-(8-(4′-(methylsulfonamido)biphenyl-3-ylsulfonyl)-1-oxa-8-azaspiro[4.5]decan-3-ylamino)propoxy)-N-methylbenzenesulfonamide]
25.2 | CNS(=O)(=O)c1cccc(OC[C@@H](O)CN[C@H]2COC3(CCN(S(=O)(=O)c4cnc5c(c4)N(C)CCCO5)CC3)C2)c1 [Compound 487, 3-((S)-2-hydroxy-3-((R)-8-(1-methyl-1,2,3,4-tetrahydropyrido[2,3-b][1,4]oxazepin-8-ylsulfonyl)-1-oxa-8-azaspiro[4.5]decan-3-ylamino)propoxy)-N-methylbenzenesulfonamide]
81.1 | CNS(=O)(=O)c1cccc(OC[C@@H](O)CNC2COC3(CCN(S(=O)(=O)c4cccnc4N(C)C)CC3)C2)c1 (stereo partly drawn) [Compound 441, 3-((2S)-3-(8-(2-(dimethylamino)pyridin-3-ylsulfonyl)-1-oxa-8-azaspiro[4.5]decan-3-ylamino)-2-hydroxypropoxy)-N-methylbenzenesulfonamide]
73.5 | CNS(=O)(=O)c1cccc(OC[C@@H](O)CNC2COC3(CCN(S(=O)(=O)c4ccccn4)CC3)C2)c1 (stereo partly drawn) [Compound 322, 3-((2S)-2-hydroxy-3-(8-(pyridin-2-ylsulfonyl)-1-oxa-8-azaspiro[4.5]decan-3-ylamino)propoxy)-N-methylbenzenesulfonamide]
2390 | CCn1ccc(=O)c(S(=O)(=O)N2CCC3(CC2)C[C@@H](NC[C@H](O)COc2cccc(S(N)(=O)=O)c2)CO3)c1 [Compound 587, 3-((S)-3-((R)-8-(1-ethyl-4-oxo-1,4-dihydropyridin-3-ylsulfonyl)-1-oxa-8-azaspiro[4.5]decan-3-ylamino)-2-hydroxypropoxy)benzenesulfonamide]
22.9 | CNS(=O)(=O)c1cccc(OC[C@@H](O)CN[C@H]2COC3(CCN(S(=O)(=O)c4ccc5[nH]c(C)nc5c4)CC3)C2)c1 [Compound 501, 3-((S)-2-hydroxy-3-((R)-8-(2-methyl-1H-benzo[d]imidazol-5-ylsulfonyl)-1-oxa-8-azaspiro[4.5]decan-3-ylamino)propoxy)-N-methylbenzenesulfonamide]
20.7 | CNS(=O)(=O)c1cccc(OC[C@@H](O)CNC2COC3(CCN(S(=O)(=O)c4cccc(-c5ccco5)c4)CC3)C2)c1 (stereo partly drawn) [Compound 78, 3-((2S)-3-(8-(3-(furan-2-yl)phenylsulfonyl)-1-oxa-8-azaspiro[4.5]decan-3-ylamino)-2-hydroxypropoxy)-N-methylbenzenesulfonamide]
36.2 | CNS(=O)(=O)c1cccc(OC[C@@H](O)CNC2COC3(CCN(S(=O)(=O)c4ccc5nc[nH]c5c4)CC3)C2)c1 (stereo partly drawn) [Compound 146, 3-((2S)-3-(8-(1H-benzo[d]imidazol-6-ylsulfonyl)-1-oxa-8-azaspiro[4.5]decan-3-ylamino)-2-hydroxypropoxy)-N-methylbenzenesulfonamide]
188 | CCNS(=O)(=O)c1cccc(OC[C@@H](O)CNC2COC3(CCN(S(=O)(=O)c4c(C)noc4C)CC3)C2)c1 (stereo partly drawn) [Compound 232, 3-((2S)-3-(8-(3,5-dimethylisoxazol-4-ylsulfonyl)-1-oxa-8-azaspiro[4.5]decan-3-ylamino)-2-hydroxypropoxy)-N-ethylbenzenesulfonamide]
32.9 | CN(C)S(=O)(=O)c1cccc(OC[C@@H](O)CNC2COC3(CCN(S(=O)(=O)c4ccc5nsnc5c4)CC3)C2)c1 (stereo partly drawn) [Compound 251, 3-((2S)-3-(8-(benzo[c][1,2,5]thiadiazol-5-ylsulfonyl)-1-oxa-8-azaspiro[4.5]decan-3-ylamino)-2-hydroxypropoxy)-N,N-dimethylbenzenesulfonamide]
11.6 | CNS(=O)(=O)c1cccc(OC[C@@H](O)CNC2COC3(CCN(S(=O)(=O)c4ccc5cc(OC)ccc5c4)CC3)C2)c1 (stereo partly drawn) [Compound 169, 3-((2S)-2-hydroxy-3-(8-(6-methoxynaphthalen-2-ylsulfonyl)-1-oxa-8-azaspiro[4.5]decan-3-ylamino)propoxy)-N-methylbenzenesulfonamide]
278 | CNS(=O)(=O)c1cccc(OC[C@@H](O)CN[C@H]2COC3(CCN(S(=O)(=O)c4cnc5c(c4)CNCC5)CC3)C2)c1 [Compound 484, 3-((S)-2-hydroxy-3-((R)-8-(5,6,7,8-tetrahydro-1,6-naphthyridin-3-ylsulfonyl)-1-oxa-8-azaspiro[4.5]decan-3-ylamino)propoxy)-N-methylbenzenesulfonamide]
7.25 | CNS(=O)(=O)c1cccc(OC[C@@H](O)CNC2COC3(CCN(S(=O)(=O)c4ccc(Cl)c5nonc45)CC3)C2)c1 (stereo partly drawn) [Compound 185, 3-((2S)-3-(8-(7-chlorobenzo[c][1,2,5]oxadiazol-4-ylsulfonyl)-1-oxa-8-azaspiro[4.5]decan-3-ylamino)-2-hydroxypropoxy)-N-methylbenzenesulfonamide]
13.2 | CNS(=O)(=O)c1cccc(OC[C@@H](O)CNC2COC3(CCN(S(=O)(=O)c4ccc(C(C)(C)C)cc4)CC3)C2)c1 (stereo partly drawn) [Compound 36, 3-((2S)-3-(8-(4-tert-butylphenylsulfonyl)-1-oxa-8-azaspiro[4.5]decan-3-ylamino)-2-hydroxypropoxy)-N-methylbenzenesulfonamide]
